Measurements taken from patent publication US20080032953A1, “Method For Inhibiting Prebiotic Effect Of Food Proteins” (Royal Canin SA,, priority 2004, published 2008).

How the values were obtained:
aerobic microflora [1] = assay: Growth of cat oral bacterial microflora in artificial saliva with protein, with or without phosphate: aerobic count; format: cell-based
Protocol: (§1) For all the experiments, the bacterial microflora of the oral cavity was removed, kept in a conservation medium, and then cultured in artificial saliva according to the following protocol:
(§2) Two male cats of “European” race, weighing approximately 5.50 kg, were anesthetized with 0.3 ml of a solution of medetomidine at 0.085 g/100 ml (Domitor, ND) and 0.26 ml of a solution of ketamine at […] (Imalgene 1000, ND).
(§3) In each animal thus immobilized, the saliva was sterilely suctioned with a pipette and the base of the teeth, the gums and the gum pockets were scraped with the back of a sterile scalpel.
(§4) All the samples were transferred and well-diluted in 100 ml of a sterile conservation medium (thiocolate resazurin medium from Biokar supplemented with 25% of glycerol). The conservation medium containing the samples was transferred into tubes with microbeads (Cryobilles, ND from AES). These tubes were then incubated for 6 hours in an incubator at 37° C., in a jar under CO2, before being frozen for subsequent use.
(§5) When subsequently used, each tube is thawed at ambient temperature and then incubated for 12 hours at 37° C., in a jar under CO2. The aerobic and anaerobic bacteria are counted according to the methods described hereinafter. The content of each tube is subsequently diluted with the sterile conservation medium so as to have an inoculum of 5000 (3.70 log10) revivable microorganisms in 0.2 ml.
(§6) The aerobic microflora is cultured and then counted on a trypticase soy medium (Biokar) incubated at 37° C. for 48 hours.
(§7) The basic artificial saliva is prepared according to table 31 on page 244 of the manual Biological Handbooks—Metabolism, compiled and edited by Philip L. Altman and Dorothy S. Dittmer, published by Federation of American Societies for Experimental Biology, 1968.
(§8) This basic saliva is supplemented with L-cysteine at a rate of 0.5 g/liter in order to lower its redox potential so as to be able to grow therein both the aerobic bacterial microflora and the anaerobic bacterial microflora. The whole will subsequently be referred to as “artificial saliva”.
(§9) The artificial saliva is dispensed into test tubes at a rate of 20 ml per tube. Each tube is supplemented or not supplemented with the protein, in the presence or absence of the phosphate to be tested. Each treatment is composed of two tubes.
(§10) The whole is autoclaved at 110° C. for 15 minutes.
(§11) Each tube is subsequently inoculated with 0.2 ml of inoculum described above. The whole is incubated in an incubator at 37° C., with shaking.
(§12) After 24, 48 or 72 hours of incubation, the aerobic flora and the anaerobic flora are counted according to the methods described above.
(§13) The result of each treatment is the mean of the counts of two test tubes, expressed as log10 of C.F.U. (Colony Forming Units) per ml of artificial saliva.

anaerobic microflora [2] = assay: Growth of cat oral bacterial microflora in artificial saliva with protein, with or without phosphate: anaerobic count; format: cell-based
Protocol: as §1, §2, §3, §4, §5
(§14) The anaerobic microflora is cultured and then counted on a Schaedler medium (Biokar) supplemented with 5% of sterile defibrinated sheep blood, incubated at 37° C., in a jar under CO2, for 48 hours.
as §7, §8, §9, §10, §11, §12, §13

aerobic microflora [3] = assay: Growth of canine oral flora in artificial saliva with soya hydrolysate, with or without tripolyphosphate: aerobic count; format: cell-based, dog; conditions: for Aerobic microflora CFU/ml, 24 hours / Aerobic microflora CFU/ml, 48 hours: Experiment 6, canine flora
Protocol: as §1, §5, §6, §7, §8, §9, §10, §11, §12, §13
(§15) In this assay, the inhibitory effect of sodium tripolyphosphate incorporated at 0, 0.5, 1, 1.5 and 2%, on the prebiotic effect of a dehydrated soya hydrolysate (Nurish 1500 IP, ND from Solea Company, having a titer of 83% of total nitrogenous matter) incorporated into the artificial saliva at 0.5 and at 1%, was tested.
(§16) In this assay, oral microflora taken from a dog were used.

anaerobic microflora [4] = assay: Growth of canine oral flora in artificial saliva with soya hydrolysate, with or without tripolyphosphate: anaerobic count; format: cell-based, dog; conditions: for Anaerobic microflora CFU/ml, 24 hours / Anaerobic microflora CFU/ml, 48 hours: Experiment 6, canine flora
Protocol: as §1, §5, §14, §7, §8, §9, §10, §11, §12, §13, §15, §16

[5] = Experiment 4, MP9007 1%, tripolyphosphate 0.5%
[6] = Experiment 4, MP9007 1%, tripolyphosphate 1%
[7] = Experiment 4, MP9007 1%, tripolyphosphate 1.5%
[8] = Experiment 4, MP9007 1%, tripolyphosphate 2%
[9] = Experiment 4, sodium tripolyphosphate 0.5-2%, MP9007 1%
[10] = Experiment 5, regardless of the amount incorporated (0.5-2%), soya hydrolysate 1%
[11] = Experiment 5, soya hydrolysate 1%, tripolyphosphate 0.5%
[12] = Experiment 5, soya hydrolysate 1%, tripolyphosphate 1%
[13] = Experiment 5, soya hydrolysate 1%, tripolyphosphate 1.5%
[14] = Experiment 5, soya hydrolysate 1%, tripolyphosphate 2%
[15] = tripolyphosphate 0.5%, soya hydrolysate 0.5%
[16] = tripolyphosphate 0.5%, soya hydrolysate 1%
[17] = tripolyphosphate 1%, soya hydrolysate 0.5%
[18] = tripolyphosphate 1%, soya hydrolysate 1%
[19] = tripolyphosphate 1.5%, soya hydrolysate 0.5%
[20] = tripolyphosphate 1.5%, soya hydrolysate 1%
[21] = tripolyphosphate 2%, soya hydrolysate 0.5%
[22] = tripolyphosphate 2%, soya hydrolysate 1%
[23] = Experiment 6, soya hydrolysate 0.5 and 1%
[24] = Experiment 6, tripolyphosphate incorporation rates greater than or equal to 1%

SMILES: O=P(O)(O)OP(=O)(O)OP(=O)(O)O [sodium tripolyphosphate]
- Aerobic microflora CFU/ml, 24 hours (aerobic microflora [1]; [5]): 5.50 log10 CFU/ml
- Aerobic microflora CFU/ml, 48 hours (aerobic microflora [1]; [5]): 6.90 log10 CFU/ml
- Aerobic microflora CFU/ml, 24 hours (aerobic microflora [1]; [6]): 4.81 log10 CFU/ml
- Aerobic microflora CFU/ml, 48 hours (aerobic microflora [1]; [6]): 6.49 log10 CFU/ml
- Aerobic microflora CFU/ml, 24 hours (aerobic microflora [1]; [7]): 4.84 log10 CFU/ml
- Aerobic microflora CFU/ml, 48 hours (aerobic microflora [1]; [7]): 6.83 log10 CFU/ml
- Aerobic microflora CFU/ml, 24 hours (aerobic microflora [1]; [8]): <4.00 log10 CFU/ml
- Aerobic microflora CFU/ml, 48 hours (aerobic microflora [1]; [8]): <4.00 log10 CFU/ml
- Inhibition of the prebiotic effect of the MP9007 protein, aerobic microflora (in words) (aerobic microflora [1]; [9]): significantly inhibits
- Inhibition of the prebiotic effect of soya hydrolysate, aerobic microflora (in words) (aerobic microflora [1]; [10]): virtually inhibits the entire prebiotic effect
- Aerobic microflora CFU/ml, 24 hours (aerobic microflora [1]; [11]): <4.00 log10 CFU/ml
- Aerobic microflora CFU/ml, 48 hours (aerobic microflora [1]; [11]): <4.00 log10 CFU/ml
- Aerobic microflora CFU/ml, 24 hours (aerobic microflora [1]; [12]): <4.00 log10 CFU/ml
- Aerobic microflora CFU/ml, 48 hours (aerobic microflora [1]; [12]): <4.00 log10 CFU/ml
- Aerobic microflora CFU/ml, 24 hours (aerobic microflora [1]; [13]): <4.00 log10 CFU/ml
- Aerobic microflora CFU/ml, 48 hours (aerobic microflora [1]; [13]): <4.00 log10 CFU/ml
- Aerobic microflora CFU/ml, 24 hours (aerobic microflora [1]; [14]): <4.00 log10 CFU/ml
- Aerobic microflora CFU/ml, 48 hours (aerobic microflora [1]; [14]): <4.00 log10 CFU/ml
- Anaerobic microflora CFU/ml, 24 hours (anaerobic microflora [2]; [5]): 5.41 log10 CFU/ml
- Anaerobic microflora CFU/ml, 48 hours (anaerobic microflora [2]; [5]): 7.04 log10 CFU/ml
- Anaerobic microflora CFU/ml, 24 hours (anaerobic microflora [2]; [6]): <4.00 log10 CFU/ml
- Anaerobic microflora CFU/ml, 48 hours (anaerobic microflora [2]; [6]): 6.36 log10 CFU/ml
- Anaerobic microflora CFU/ml, 24 hours (anaerobic microflora [2]; [7]): 4.98 log10 CFU/ml
- Anaerobic microflora CFU/ml, 48 hours (anaerobic microflora [2]; [7]): 6.82 log10 CFU/ml
- Anaerobic microflora CFU/ml, 24 hours (anaerobic microflora [2]; [8]): <4.00 log10 CFU/ml
- Anaerobic microflora CFU/ml, 48 hours (anaerobic microflora [2]; [8]): <4.00 log10 CFU/ml
- Inhibition of the prebiotic effect of the MP9007 protein, anaerobic microflora (in words) (anaerobic microflora [2]; [9]): significantly inhibits
- Inhibition of the prebiotic effect of soya hydrolysate, anaerobic microflora (in words) (anaerobic microflora [2]; [10]): virtually inhibits the entire prebiotic effect
- Anaerobic microflora CFU/ml, 24 hours (anaerobic microflora [2]; [11]): <4.00 log10 CFU/ml
- Anaerobic microflora CFU/ml, 48 hours (anaerobic microflora [2]; [11]): <4.00 log10 CFU/ml
- Anaerobic microflora CFU/ml, 24 hours (anaerobic microflora [2]; [12]): <4.00 log10 CFU/ml
- Anaerobic microflora CFU/ml, 48 hours (anaerobic microflora [2]; [12]): <4.00 log10 CFU/ml
- Anaerobic microflora CFU/ml, 24 hours (anaerobic microflora [2]; [13]): <4.00 log10 CFU/ml
- Anaerobic microflora CFU/ml, 48 hours (anaerobic microflora [2]; [13]): <4.00 log10 CFU/ml
- Anaerobic microflora CFU/ml, 24 hours (anaerobic microflora [2]; [14]): <4.00 log10 CFU/ml
- Anaerobic microflora CFU/ml, 48 hours (anaerobic microflora [2]; [14]): <4.00 log10 CFU/ml
- Aerobic microflora CFU/ml, 24 hours (aerobic microflora [3]; [15]): 7.10 log10 CFU/ml
- Aerobic microflora CFU/ml, 48 hours (aerobic microflora [3]; [15]): 7.54 log10 CFU/ml
- Aerobic microflora CFU/ml, 24 hours (aerobic microflora [3]; [16]): 7.50 log10 CFU/ml
- Aerobic microflora CFU/ml, 48 hours (aerobic microflora [3]; [16]): 7.51 log10 CFU/ml
- Aerobic microflora CFU/ml, 24 hours (aerobic microflora [3]; [17]): <3 log10 CFU/ml
- Aerobic microflora CFU/ml, 48 hours (aerobic microflora [3]; [17]): <3 log10 CFU/ml
- Aerobic microflora CFU/ml, 24 hours (aerobic microflora [3]; [18]): <3 log10 CFU/ml
- Aerobic microflora CFU/ml, 48 hours (aerobic microflora [3]; [18]): 3.17 log10 CFU/ml
- Aerobic microflora CFU/ml, 24 hours (aerobic microflora [3]; [19]): <3 log10 CFU/ml
- Aerobic microflora CFU/ml, 48 hours (aerobic microflora [3]; [19]): <3 log10 CFU/ml
- Aerobic microflora CFU/ml, 24 hours (aerobic microflora [3]; [20]): <3 log10 CFU/ml
- Aerobic microflora CFU/ml, 48 hours (aerobic microflora [3]; [20]): <3 log10 CFU/ml
- Aerobic microflora CFU/ml, 24 hours (aerobic microflora [3]; [21]): <3 log10 CFU/ml
- Aerobic microflora CFU/ml, 48 hours (aerobic microflora [3]; [21]): <3 log10 CFU/ml
- Aerobic microflora CFU/ml, 24 hours (aerobic microflora [3]; [22]): <3 log10 CFU/ml
- Aerobic microflora CFU/ml, 48 hours (aerobic microflora [3]; [22]): <3 log10 CFU/ml
- Inhibition of the prebiotic effect of soya hydrolysate, canine aerobic oral microflora (in words) (aerobic microflora [3]; [23]): inhibits the prebiotic effect
- Inhibitory effect, canine aerobic oral microflora (in words) (aerobic microflora [3]; [24]): particularly substantial
- Anaerobic microflora CFU/ml, 24 hours (anaerobic microflora [4]; [15]): 1.92 log10 CFU/ml
- Anaerobic microflora CFU/ml, 48 hours (anaerobic microflora [4]; [15]): 5.80 log10 CFU/ml
- Anaerobic microflora CFU/ml, 24 hours (anaerobic microflora [4]; [16]): 6.30 log10 CFU/ml
- Anaerobic microflora CFU/ml, 48 hours (anaerobic microflora [4]; [16]): 6.24 log10 CFU/ml
- Anaerobic microflora CFU/ml, 24 hours (anaerobic microflora [4]; [17]): <3 log10 CFU/ml
- Anaerobic microflora CFU/ml, 48 hours (anaerobic microflora [4]; [17]): <3 log10 CFU/ml
- Anaerobic microflora CFU/ml, 24 hours (anaerobic microflora [4]; [18]): <3 log10 CFU/ml
- Anaerobic microflora CFU/ml, 48 hours (anaerobic microflora [4]; [18]): 3.30 log10 CFU/ml
- Anaerobic microflora CFU/ml, 24 hours (anaerobic microflora [4]; [19]): <3 log10 CFU/ml
- Anaerobic microflora CFU/ml, 48 hours (anaerobic microflora [4]; [19]): <3 log10 CFU/ml
- Anaerobic microflora CFU/ml, 24 hours (anaerobic microflora [4]; [20]): <3 log10 CFU/ml
- Anaerobic microflora CFU/ml, 48 hours (anaerobic microflora [4]; [20]): <3 log10 CFU/ml
- Anaerobic microflora CFU/ml, 24 hours (anaerobic microflora [4]; [21]): <3 log10 CFU/ml
- Anaerobic microflora CFU/ml, 48 hours (anaerobic microflora [4]; [21]): <3 log10 CFU/ml
- Anaerobic microflora CFU/ml, 24 hours (anaerobic microflora [4]; [22]): <3 log10 CFU/ml
- Anaerobic microflora CFU/ml, 48 hours (anaerobic microflora [4]; [22]): <3 log10 CFU/ml
- Inhibition of the prebiotic effect of soya hydrolysate, canine anaerobic oral microflora (in words) (anaerobic microflora [4]; [23]): inhibits the prebiotic effect
- Inhibitory effect, canine anaerobic oral microflora (in words) (anaerobic microflora [4]; [24]): particularly substantial
